The values below come from US10117909B2, “Combination of an insulin and a GLP-1 agonist” (Sanofi-Aventis Deutschland GmbH, priority 2008, dated 2018).

The nature of the assay: Oral glucose tolerance test (OGTT) in healthy dogs. The settings on record: male beagle, n=6, single s.c. injection at time 0, insulin glargine 0.3 U/kg, AVE0010 10 μg/kg, relative to Lantus placebo; for OGTT-induced postprandial increase in blood glucose: repeated OGTT 2 g/kg p.o. at 30 min and 5 h; for blood glucose concentration in the postabsorptive phase: repeated OGTT 2 g/kg p.o. Type of assay: in vivo, dog. As for the experimental part:
Model: Oral glucose tolerance test (OGTT) in healthy dogs: Comparison of the insulin glargine/AVE0010 combination with the two individual active compounds.
• Male normoglycemic beagles • Bodyweight: ˜15 kg • Number per group: n=6 Study Design (See FIG. 1) • Individual subcutaneous injections of placebo or test formulation at time 0 • 2 oral administrations of glucose, at 2 g of glucose/kg of bodyweight, at times 30 min and 5 h • Blood samples are taken to determine blood glucose, plasma insulin, and c-peptide Group Division (n=6) • Placebo (Lantus placebo formulation without API) • Insulin glargine (0.3 μl/kg s.c., equivalent to 1.8 nmol/kg). Insulin glargine is Gly(A21)-Arg(B31)-Arg(B32) human insulin. • AVE0010 (10 μg/kg s.c. in Lantus placebo formulation, equivalent to 2 nmol/kg).
AVE0010 is des Pro^36exendin-4(1-39)-Lys6-NH2. • AVE0010/insulin glargine combination (10 μg/kg AVE0010/0.3 μl/kg insulin glargine s.c.)

“Also recorded” adds a separate entry of the source.

Consider “des Pro^36exendin-4(1-39)-Lys6-NH2 [AVE0010]”, for which the “OGTT-induced postprandial increase in blood glucose” value was “prevents the OGTT-induced postprandial increase in blood glucose almost completely” and the “blood glucose concentration in the postabsorptive phase” value is recorded as “no effect on the glucose concentration in the postabsorptive phase; also recorded: has no effect on the level of glucose, which has fallen again following administration of glucose”.

“Gly(A21)-Arg(B31)-Arg(B32) human insulin [insulin glargine]”: the “OGTT-induced postprandial increase in blood glucose” value is “does not prevent the OGTT-induced increase in blood glucose; also recorded: has no effect on the postprandial glucose level” and the “blood glucose concentration in the postabsorptive phase” value was “reinforces the expected delayed lowering of blood glucose concentration in the postabsorptive phase”.
